Experimental data published in patent US20220273562A1, “HYDROPHOBICALLY ASSOCIATING POLYMER COUNTER ION PAIR COMPLEXES” (MALVERN COSMECEUTICS LIMITED, priority 2019, published 2022).
Counter-ions that a name gives are not always drawn. Blank lines part the entries; values can stand above or below the compound they belong to.

What was measured:
[1] = Stability of the mixtures after 2-4 mths at 4° C.; assay type: physicochemical; set-up: key to Stability* After 2-4 mths + at 4° C.: S-stable; PS—partially stable; NS—not stable
[2] = Ability of polymer counter ion pair to solubilise lipid: visual clarity of polymer counter ion/PL mixtures as pH is adjusted; settings: for ion pairing with SMA 1:1 leading to formation of SMA/PL macromolecular assemblies: hydrochloride salts as cationic counter ions
[3] = SMA 1:1 50 mg, DLPC 20 mg, 2 ml, amine HCl: isopentylamine 3 mg, isobutylamine 9 mg, tyramine 5-6 mg, diphenhydramine 2.5-4 mg, phenylalanine ethyl ester 10 mg, tolazoline 5 mg, naphazoline 8 mg total
[4] = SMA 1:1 50 mg, DLPC 20 mg, 2 ml, phenylalanine ethyl ester 'Cleared,', tolazoline 'Remains clear overnight,', naphazoline 'Virtually clear'
[5] = SMA 1:1 50 mg, DLPC 20 mg (2.5:1), 2 ml, amine HCl [% w/w]: isopentylamine 3 mg [0.15], isobutylamine 9 mg [0.45] (clears on standing 3 days), tyramine 5-6 mg [0.25-0.3], diphenhydramine 2.5-4 mg [0.13-0.2], phenylalanine ethyl ester 10 mg [0.5], tolazoline 5 mg [0.25], naphazoline 5 mg, start pH 7 or 8
[6] = SMA 1:1 50 mg, DLPC 20 mg, 2 ml, naphazoline HCl further 3 mg, 8 mg [0.4% w/w] total

SMILES: NCCc1ccc(O)c(O)c1 [dopamine, reference compound]
ion pairing with SMA 1:1 leading to formation of SMA/PL macromolecular assemblies [2]: failed

SMILES: CC(C)CN [Isobutylamine]
Stability, appearance in words ([1]; Poly(methacrylic acid) sodium 4-6k 50 mg, DLPC 10 mg, isobutyl amine HCl 10 mg [0.5% w/w]): Clear | Stability, appearance in words ([1]; Poly(methacrylic acid) sodium 4-6k 50 mg, DLPC 10 mg, isobutyl amine HCl 24 mg then 36 mg total, printed 'Clear overnight few white ppt particles'): Clear | Stability* After 2-4 mths + at 4° C. [1, 3]: S | pH for clear sample ([2]; Poly(maleic acid) 50 mg, DLPC 2 mg (25:1), isobutyl amine HCl further 5 mg, 20 mg [1.0% w/w] total, printed 'No clearing.'): No | pH for clear sample ([2]; Poly(maleic acid) 50 mg, DLPC 2 mg, isobutyl amine HCl further 5 mg, 25 mg [1.25% w/w] total, at pH 8, printed '8, No clearing.'): 8, No | pH for clear sample ([2]; Poly(maleic acid) 50 mg, DLPC further 2, total 4 mg (12.5:1), isobutyl amine HCl 25 mg, complete clearing, fine white flecks): 3, Complete | pH at which ppt forms ([2]; Poly(maleic acid) 50 mg, DLPC total 4 mg (12.5:1), isobutyl amine HCl 25 mg): 4 ppt. | pH for clear sample ([2]; Poly(maleic acid) ex PolyS 50 mg, 2 ml, start pH 8, isobutyl amine HCl 15 mg [0.75% w/w], no DLPC entered in this line): 7 | pH at which ppt forms ([2]; Poly(methacrylic acid) sodium 4-6k 50 mg, DLPC 10 mg (5:1), 2 ml, start pH 6, isobutyl amine HCl 10 mg [0.5% w/w]): 4, ppt | pH for clear sample ([2]; Poly(methacrylic acid) sodium 4-6k 50 mg, DLPC 10 mg, isobutyl amine HCl 24 mg [1.2% w/w] total): ppt, 5 | pH at which slight clouding occurs ([2]; Poly(methacrylic acid) sodium 4-6k 50 mg, DLPC 10 mg, isobutyl amine HCl 36 mg [1.8% w/w] total): 5, slight | pH for clear sample [2, 5]: 8, clears

SMILES: CC(C)CCN [Isopentylamine, Isopentyl amine]
Stability* After 2-4 mths + at 4° C. [1, 3]: NS | pH for clear sample [2, 5]: 7, Clear

SMILES: N[C@@H](Cc1ccc(O)c(O)c1)C(=O)O [L-dopa, reference compound]
ion pairing with SMA 1:1 leading to formation of SMA/PL macromolecular assemblies [2]: failed

SMILES: Nc1ccc(C(=O)O)cc1 [4-amino benzoic acid (PABA), 4-amino benzoic acid]
ion pairing with SMA 1:1 leading to formation of SMA/PL macromolecular assemblies [2]: failed

SMILES: COc1cc(C(O)CN)ccc1O (stereo not drawn) [normetanephrine]
ion pairing with SMA 1:1 leading to formation of SMA/PL macromolecular assemblies [2]: failed

SMILES: NC[C@H](O)c1ccc(O)c(O)c1 [L-norepinephrine, reference compound]
ion pairing with SMA 1:1 leading to formation of SMA/PL macromolecular assemblies [2]: failed

SMILES: Cl.NCCc1ccccc1 [PEA, 2-Phenylethylamine hydrochloride]
Stability* After 2-4 mths + at 4° C. ([1]; SMA 1:1 40 mg, DLPC 20 mg, 1.6 ml, PEA HCl 4.4 mg [0.25% w/w]): NS | Stability* After 2-4 mths + at 4° C. ([1]; SMA 1:1 50 mg, DLPC 25 mg, 2 ml, PEA HCl 40 mg [2% w/w]): PS | collapse pH ([2]; 2% PEA added to a 2.5% solution of 1:1 SMA): 8-9 | pH for clear sample ([2]; SMA 1:1 40 mg, DLPC 20 mg (2:1), final vol 1.6 ml, PEA HCl 4.4 mg [0.25% w/w]): 7, Clear | pH for clear sample ([2]; SMA 1:1 40 mg, DLPC 20 mg, final vol 1.64 ml, further 2.9 mg PEA HCl, 7.3 mg [0.45% w/w] total): 10, Clear | pH for clear sample ([2]; SMA 1:1 50 mg, DLPC 25 mg (2:1), final vol 2 ml, PEA HCl 40 mg [2% w/w]): 8.5 clear | pH for clear sample ([2]; SMA 2:1 50 mg, DLPC 25 mg (polymer:lipid 2:1), final vol 2 ml, PEA HCl 40 mg [2% w/w]): 9 clear | pH over which the polymer collapses to interact with phospholipid ([2]; ratio SMA(1:1):PEA 5:4): 8.5 | pH over which the polymer collapses to interact with phospholipid ([2]; ratio SMA(1:1):PEA 9:1): 7.0

SMILES: NCC(O)c1ccc(O)cc1 (stereo not drawn) [octopamine]
ion pairing with SMA 1:1 leading to formation of SMA/PL macromolecular assemblies [2]: failed

More lines, main results first:

Stability* After 2-4 mths + at 4° C. [1, 3]: PS | Stability, appearance in words [1, 4]: Cleared, | pH for clear sample [2, 5]: 8, Clears
SMILES: CCOC(=O)[C@@H](N)Cc1ccccc1.Cl [Phenylalanine ethyl ester, L-phenylalanine ethyl ester hydrochloride]

Stability* After 2-4 mths + at 4° C. [1, 3]: S | Stability, appearance in words [1, 4]: clear | pH for clear sample ([2]; Poly(methacrylic acid) sodium 4-6k 50 mg (preformed PMA + Bz), DLPC 10 mg (5:1), 2 ml, start pH 7-8, tolazoline HCl 22 mg [1.1% w/w], printed 'ppt & clear'): 6, ppt & | pH for clear sample [2, 5]: 7-8, | collapse pK of the 1:1 SMA polymer when associating with PL ([2]; imidazoline counter ion in place of a primary amine): ~7
SMILES: c1ccc(CC2=NCCN2)cc1 [2-Benzyl-2-imidazoline (tolazoline), 2-benzyl-2-imidazoline, reference compound]

ion pairing with SMA 1:1 leading to formation of SMA/PL macromolecular assemblies [2]: failed
SMILES: CCOC(=O)c1ccc(N)cc1 [benzocaine, reference compound]

pH at which ppt forms ([2]; SMA 1:1 50 mg, DLPC 20 mg, 2 ml, diphenhydramine HCl 2.5-4 mg [0.13-0.2% w/w]): ppt 6
SMILES: CN(C)CCOC(c1ccccc1)c1ccccc1 [Diphenhydramine, diphenhydramine hydrochloride, reference compound]

ion pairing with SMA 1:1 leading to formation of SMA/PL macromolecular assemblies [2]: only partially formed
SMILES: CN(C)CCCC1c2ccccc2CCc2ccccc21 [amitryptyline hydrochloride, reference compound]

Stability* After 2-4 mths + at 4° C. [1, 3]: S
SMILES: NCCc1ccc(O)cc1 [Tyramine, tyramine]
ion pairing with SMA 1:1 leading to formation of SMA/PL macromolecular assemblies [2]: can also surprisingly be used as ion pairs

Stability* After 2-4 mths + at 4° C. [1, 3]: PS | Stability, appearance in words [1, 4]: clear | pH for clear sample [2, 5]: 8, Clear | pH at which sample is cloudy [2, 6]: Cloudy 7, | pH for clear sample [2, 6]: Clear 8-9.
SMILES: c1ccc2c(CC3=NCCN3)cccc2c1 [Naphazoline, naphazoline hydrochloride, reference compound]
ion pairing with SMA 1:1 leading to formation of SMA/PL macromolecular assemblies [2]: can also surprisingly be used as ion pairs
